In the NIST ThermoML archive (doi:10.1021/acs.jced.9b00185):

What was measured:
[1] = 298.15 K; 101.33 kPa; Liquid; Vibrating tube method
[2] = refractive index (Na D-line) (dimensionless); conditions: 298.15 K; 101.33 kPa; Liquid; Standard Abbe refractometry
[3] = excess molar enthalpy (molar enthalpy of mixing); xn = mol fraction of the nth substance listed; conditions: 298.15 K, 98.8 kPa, Liquid, Calvet calorimetry
[4] = xn = mol fraction of the nth substance listed; conditions: 298.15 K, 98.8 kPa, Liquid, Vibrating tube method

CCCCCCCCCC [decane]
Conditions | mass density [kg/m3] | refractive index
[1] | 726.61 | –
[2] | – | 1.41

CCCCCCCCCC [decane] + CCCCCCCCCC(=O)OC
Conditions | excess molar enthalpy [kcal/mol]
[3], x2 = 0 | 0

CCCCCCCCCCCC [dodecane]
Conditions | mass density [kg/m3] | refractive index
[1] | 745.2 | –
[2] | – | 1.4197

CCCCCCCCCCCC [dodecane] + CCCCCCCCCC(=O)OC
x2 = 0
Conditions | excess molar enthalpy [kcal/mol] | mass density [kg/m3]
[3] | 0 | –
[4] | – | 745.2

CCCCCCCCCCCCCCCC [hexadecane]
Conditions | mass density [kg/m3] | refractive index
[1] | 769.8 | –
[2] | – | 1.4323

CCCCCCCCCCCCCCCC [hexadecane] + CCCCCCCCCC(=O)OC
x2 = 0
Conditions | excess molar enthalpy [kcal/mol] | mass density [kg/m3]
[3] | 0 | –
[4] | – | 769.8

CCCCCC [hexane]
Conditions | mass density [kg/m3] | refractive index
[1] | 654.81 | –
[2] | – | 1.3725

CCCCCC [hexane] + CCCCCCCCCC(=O)OC
Conditions | excess molar enthalpy [kcal/mol]
[3], x2 = 0 | 0

CCCCCCCCCC(=O)OC [methyl decanoate]
Conditions | mass density [kg/m3] | refractive index
[1] | 868.02 | –
[2] | – | 1.4235

CCCCCCCCCC(=O)OC [methyl decanoate] + CCCCCC
[3]
Conditions | excess molar enthalpy [kcal/mol]
x1 = 0.0479 | 0.0382
x1 = 0.0943 | 0.0636
x1 = 0.1448 | 0.081
x1 = 0.1927 | 0.105
x1 = 0.2477 | 0.114
x1 = 0.3077 | 0.123
x1 = 0.3542 | 0.126
x1 = 0.4059 | 0.125
x1 = 0.4574 | 0.12
x1 = 0.5055 | 0.113
x1 = 0.5557 | 0.107
x1 = 0.6037 | 0.0985
x1 = 0.6531 | 0.088
x1 = 0.7032 | 0.077
x1 = 0.752 | 0.0679
x1 = 0.8028 | 0.0543
x1 = 0.8496 | 0.0399
x1 = 0.9014 | 0.0277
x1 = 0.9328 | 0.0174
x1 = 1 | 0

CCCCCCCCCC(=O)OC [methyl decanoate] + CCCCCCCC
[3]
Conditions | excess molar enthalpy [kcal/mol]
x1 = 0.0551 | 0.0394
x1 = 0.1035 | 0.0691
x1 = 0.154 | 0.0949
x1 = 0.2078 | 0.113
x1 = 0.2514 | 0.127
x1 = 0.3088 | 0.137
x1 = 0.3584 | 0.143
x1 = 0.399 | 0.147
x1 = 0.4514 | 0.146
x1 = 0.5051 | 0.143
x1 = 0.5555 | 0.137
x1 = 0.599 | 0.131
x1 = 0.657 | 0.115
x1 = 0.7066 | 0.103
x1 = 0.7511 | 0.0913
x1 = 0.8069 | 0.0712
x1 = 0.8577 | 0.0533
x1 = 0.9098 | 0.0351
x1 = 0.9561 | 0.0167
x1 = 1 | 0

CCCCCCCCCC(=O)OC [methyl decanoate] + CCCCCCCCCC
[3]
Conditions | excess molar enthalpy [kcal/mol]
x1 = 0.0469 | 0.033
x1 = 0.0985 | 0.0662
x1 = 0.1523 | 0.0915
x1 = 0.2018 | 0.115
x1 = 0.2537 | 0.133
x1 = 0.3062 | 0.15
x1 = 0.3563 | 0.156
x1 = 0.4008 | 0.16
x1 = 0.4543 | 0.162
x1 = 0.5058 | 0.159
x1 = 0.5498 | 0.156
x1 = 0.6017 | 0.146
x1 = 0.6524 | 0.133
x1 = 0.7078 | 0.114
x1 = 0.7597 | 0.0994
x1 = 0.8086 | 0.0813
x1 = 0.8592 | 0.0607
x1 = 0.9058 | 0.0406
x1 = 0.9566 | 0.0151
x1 = 1 | 0

CCCCCCCCCC(=O)OC [methyl decanoate] + CCCCCCCCCCCC
Conditions | excess molar enthalpy, [3] [kcal/mol] | mass density, [4] [kg/m3]
x1 = 0.05 | – | 750.68
x1 = 0.0512 | 0.0394 | –
x1 = 0.1 | – | 756.24
x1 = 0.1129 | 0.076 | –
x1 = 0.1503 | – | 761.93
x1 = 0.1513 | 0.101 | –
x1 = 0.1998 | – | 767.59
x1 = 0.2021 | 0.119 | –
x1 = 0.25 | – | 773.38
x1 = 0.2513 | 0.141 | –
x1 = 0.299 | 0.152 | –
x1 = 0.3001 | – | 779.28
x1 = 0.3506 | – | 785.27
x1 = 0.3572 | 0.163 | –
x1 = 0.3996 | – | 791.16
x1 = 0.4051 | 0.169 | –
x1 = 0.4473 | 0.172 | –
x1 = 0.4497 | – | 797.22
x1 = 0.5002 | – | 803.37
x1 = 0.5033 | 0.172 | –
x1 = 0.55 | – | 809.54
x1 = 0.5502 | 0.169 | –
x1 = 0.5952 | 0.163 | –
x1 = 0.5998 | – | 815.74
x1 = 0.6499 | – | 822.04
x1 = 0.652 | 0.15 | –
x1 = 0.6994 | – | 828.35
x1 = 0.7089 | 0.132 | –
x1 = 0.7495 | – | 834.79
x1 = 0.7524 | 0.117 | –
x1 = 0.7996 | – | 841.3
x1 = 0.8098 | 0.0954 | –
x1 = 0.8493 | – | 847.78
x1 = 0.8525 | 0.0731 | –
x1 = 0.8997 | – | 854.45
x1 = 0.9019 | 0.0485 | –
x1 = 0.9496 | – | 861.18
x1 = 0.9586 | 0.0196 | –
x1 = 1 | 0 | 868.02

CCCCCCCCCC(=O)OC [methyl decanoate] + CCCCCCCCCCCCCC
Conditions | excess molar enthalpy, [3] [kcal/mol] | mass density, [4] [kg/m3]
x1 = 0.0498 | – | 763.35
x1 = 0.0633 | 0.0497 | –
x1 = 0.0922 | 0.0712 | –
x1 = 0.1001 | – | 767.69
x1 = 0.1502 | – | 772.18
x1 = 0.1577 | 0.108 | –
x1 = 0.1964 | 0.126 | –
x1 = 0.1998 | – | 776.73
x1 = 0.2496 | – | 781.41
x1 = 0.258 | 0.152 | –
x1 = 0.2999 | – | 786.24
x1 = 0.3045 | 0.163 | –
x1 = 0.3501 | – | 791.21
x1 = 0.3597 | 0.176 | –
x1 = 0.3944 | 0.184 | –
x1 = 0.4001 | – | 796.26
x1 = 0.4492 | 0.19 | –
x1 = 0.4498 | – | 801.43
x1 = 0.5001 | – | 806.77
x1 = 0.5076 | 0.19 | –
x1 = 0.5498 | – | 812.19
x1 = 0.5535 | 0.185 | –
x1 = 0.5997 | – | 817.76
x1 = 0.607 | 0.173 | –
x1 = 0.6499 | – | 823.51
x1 = 0.6586 | 0.161 | –
x1 = 0.6999 | – | 829.37
x1 = 0.7089 | 0.146 | –
x1 = 0.7501 | – | 835.45
x1 = 0.7542 | 0.131 | –
x1 = 0.799 | – | 841.48
x1 = 0.8009 | 0.115 | –
x1 = 0.8477 | 0.0946 | –
x1 = 0.849 | – | 847.78
x1 = 0.8974 | 0.0676 | –
x1 = 0.8992 | – | 854.34
x1 = 0.9455 | 0.0423 | –
x1 = 0.95 | – | 861.12
x1 = 1 | 0 | 868.02

CCCCCCCCCC(=O)OC [methyl decanoate] + CCCCCCCCCCCCCCCC
Conditions | excess molar enthalpy, [3] [kcal/mol] | mass density, [4] [kg/m3]
x1 = 0.0499 | – | 773.1
x1 = 0.0636 | 0.0471 | –
x1 = 0.0998 | – | 776.6
x1 = 0.1131 | 0.081 | –
x1 = 0.1501 | – | 780.26
x1 = 0.1619 | 0.107 | –
x1 = 0.2 | – | 783.98
x1 = 0.201 | 0.129 | –
x1 = 0.2497 | – | 787.88
x1 = 0.2575 | 0.153 | –
x1 = 0.3006 | – | 791.99
x1 = 0.3056 | 0.17 | –
x1 = 0.3497 | – | 796.11
x1 = 0.3584 | 0.184 | –
x1 = 0.398 | 0.195 | –
x1 = 0.4001 | – | 800.47
x1 = 0.4494 | 0.198 | –
x1 = 0.45 | – | 804.97
x1 = 0.4955 | 0.198 | –
x1 = 0.4997 | – | 809.64
x1 = 0.5479 | 0.195 | –
x1 = 0.5502 | – | 814.55
x1 = 0.5983 | 0.188 | –
x1 = 0.5995 | – | 819.57
x1 = 0.6494 | 0.177 | –
x1 = 0.6501 | – | 824.85
x1 = 0.6996 | – | 830.28
x1 = 0.7034 | 0.163 | –
x1 = 0.7497 | – | 835.95
x1 = 0.7512 | 0.145 | –
x1 = 0.7997 | – | 841.91
x1 = 0.8015 | 0.126 | –
x1 = 0.8489 | – | 847.93
x1 = 0.8493 | 0.102 | –
x1 = 0.8992 | – | 854.43
x1 = 0.8995 | 0.0707 | –
x1 = 0.9494 | – | 861.11
x1 = 0.9495 | 0.0366 | –
x1 = 1 | 0 | 868.02

CCCCCCCC [octane]
Conditions | mass density [kg/m3] | refractive index
[1] | 698.45 | –
[2] | – | 1.3955

CCCCCCCC [octane] + CCCCCCCCCC(=O)OC
Conditions | excess molar enthalpy [kcal/mol]
[3], x2 = 0 | 0

CCCCCCCCCCCCCC [tetradecane]
Conditions | mass density [kg/m3] | refractive index
[1] | 759.17 | –
[2] | – | 1.4273

CCCCCCCCCCCCCC [tetradecane] + CCCCCCCCCC(=O)OC
x2 = 0
Conditions | excess molar enthalpy [kcal/mol] | mass density [kg/m3]
[3] | 0 | –
[4] | – | 759.17
